The experiment deals with T1, Cdc7 (BEV coexpressed huCDC7/DBF4) (Homo sapiens, UniProt O00311).
T1 construct: made in house; host or cells: BEV (baculovirus expression vector) co-expression; insect cells are implied but no cell line is named
T1 sequence (O00311 whole entry): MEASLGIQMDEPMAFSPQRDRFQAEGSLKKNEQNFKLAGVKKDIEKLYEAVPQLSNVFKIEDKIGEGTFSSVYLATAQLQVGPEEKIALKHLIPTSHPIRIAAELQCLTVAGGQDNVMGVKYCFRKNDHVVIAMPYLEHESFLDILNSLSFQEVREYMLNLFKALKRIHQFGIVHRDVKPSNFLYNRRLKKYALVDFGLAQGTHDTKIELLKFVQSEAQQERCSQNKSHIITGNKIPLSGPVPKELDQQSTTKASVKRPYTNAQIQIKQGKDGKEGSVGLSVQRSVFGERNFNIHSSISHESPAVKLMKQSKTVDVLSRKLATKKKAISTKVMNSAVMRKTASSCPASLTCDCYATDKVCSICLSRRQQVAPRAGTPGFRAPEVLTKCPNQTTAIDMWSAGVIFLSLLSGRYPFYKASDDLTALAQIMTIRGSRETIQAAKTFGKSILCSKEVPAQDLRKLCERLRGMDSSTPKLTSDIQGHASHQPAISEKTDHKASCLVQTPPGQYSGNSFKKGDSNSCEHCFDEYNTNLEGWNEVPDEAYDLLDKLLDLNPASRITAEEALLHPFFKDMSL
T1 sequence (Q9UBU7 whole entry partner): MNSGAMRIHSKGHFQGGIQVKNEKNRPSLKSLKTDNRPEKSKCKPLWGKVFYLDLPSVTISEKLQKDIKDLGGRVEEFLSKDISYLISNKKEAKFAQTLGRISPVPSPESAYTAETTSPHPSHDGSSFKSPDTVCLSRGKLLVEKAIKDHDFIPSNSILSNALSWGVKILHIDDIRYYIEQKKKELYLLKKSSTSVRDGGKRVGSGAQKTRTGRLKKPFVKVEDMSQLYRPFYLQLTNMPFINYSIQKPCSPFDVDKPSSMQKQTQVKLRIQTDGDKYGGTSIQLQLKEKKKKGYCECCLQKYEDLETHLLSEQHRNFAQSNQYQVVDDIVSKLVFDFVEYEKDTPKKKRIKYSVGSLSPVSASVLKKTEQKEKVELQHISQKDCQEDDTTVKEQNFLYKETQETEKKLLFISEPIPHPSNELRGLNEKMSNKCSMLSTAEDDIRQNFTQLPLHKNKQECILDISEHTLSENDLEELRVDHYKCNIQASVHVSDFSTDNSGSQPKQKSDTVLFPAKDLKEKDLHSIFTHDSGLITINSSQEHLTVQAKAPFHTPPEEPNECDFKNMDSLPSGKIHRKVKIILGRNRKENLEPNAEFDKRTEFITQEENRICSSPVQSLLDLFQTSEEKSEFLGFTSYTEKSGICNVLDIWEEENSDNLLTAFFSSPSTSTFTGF
The experiment can be described thus: Cdc7 enzyme inhibition assay ([33P]ATP, biotinylated peptide substrate, FlashPlate). The format is biochemical. As to conditions: Table 3; enzyme inhibition data (Ki). On the procedure: Cdc7 (BEV coexpressed huCDC7/DBF4) is prepared internally. Cdc7 assays are conducted as follows with final concentrations as listed. […] Reactions are quenched after 1 hr by the addition of 90 μL stop buffer (50 mM EDTA, 2M NaCl). […] (Ki) for exemplary compounds.
In the case of `CN[C@@H](C(=O)N[C@@H]1CCC[C@@H](Nc2cc(-c3c[nH]c4ncccc34)cc(Cl)n2)C1)c1ccccc1` [Example 329, (2R)—N-[(1R,3R)-3-{[6-chloro-4-(1H-pyrrolo[2,3-b]pyridin-3-yl)pyridin-2-yl]amino}cyclohexyl]-2-(methylamino)-2-phenylethanamide], the Ki (as a rule, the dissociation constant of the complex between target and ligand, obtained from inhibition or displacement) is under 10 nM. To `O=S(=O)(N[C@@H]1CCCC[C@H]1Nc1cc(-c2c[nH]c3ncccc23)cc(Cl)n1)C1CC1` [Example 330, N-[(1R,2R)-2-{[6-chloro-4-(1H-pyrrolo[2,3-b]pyridin-3-yl)pyridin-2-yl]amino}cyclohexyl]cyclopropanesulfonamide] belongs 10 to 100 nM; to `O=S(=O)(Nc1cc(-c2c[nH]c3ncccc23)cc(Cl)n1)c1ccc(F)cc1` [Example 331, N-[6-chloro-4-(1H-pyrrolo[2,3-b]pyridin-3-yl)pyridin-2-yl]-4-fluorobenzenesulfonamide], under 10 nM; to `O=S(=O)(Nc1cc(-c2c[nH]c3ncccc23)cc(Cl)n1)C1CC1` [Example 332, N-[6-chloro-4-(1H-pyrrolo[2,3-b]pyridin-3-yl)pyridin-2-yl]cyclopropanesulfonamide], under 10 nM. Compound `CCN(CC)CC(C)(C)CNc1cc(-c2c[nH]c3ncccc23)cc(Cl)n1` [Example 333, N′-[6-chloro-4-(1H-pyrrolo[2,3-b]pyridin-3-yl)pyridin-2-yl]-N,N-diethyl-2,2-dimethylpropane-1,3-diamine] came in with a Ki of under 10 nM. The compound `CCN(CC)[C@H]1CC[C@H](Nc2cc(-c3c[nH]c4ncccc34)cc(Cl)n2)CC1` [Example 334, trans-N′-[6-chloro-4-(1H-pyrrolo[2,3-b]pyridin-3-yl)pyridin-2-yl]-N,N-diethylcyclohexane-1,4-diamine] showed an inhibition constant (Ki) of under 10 nM. In the case of `O=C1CC[C@H](C(=O)N[C@H]2CC[C@H](Nc3cc(-c4c[nH]c5ncccc45)cc(Cl)n3)CC2)N1` [Example 335, N-(trans-4-{[6-chloro-4-(1H-pyrrolo[2,3-b]pyridin-3-yl)pyridin-2-yl]amino}cyclohexyl)-5-oxo-D-prolinamide], the Ki was under 10 nM. The compound `O=C1CC[C@@H](C(=O)N[C@H]2CC[C@H](Nc3cc(-c4c[nH]c5ncccc45)cc(Cl)n3)CC2)N1` [Example 338, N-(trans-4-{[6-chloro-4-(1H-pyrrolo[2,3-b]pyridin-3-yl)pyridin-2-yl]amino}cyclohexyl)-5-oxo-L-prolinamide] yielded an inhibition constant (Ki) of under 10 nM.

Compound `CN1CCCCC1C(=O)NC1CCCC(Nc2cc(-c3c[nH]c4ncccc34)cc(Cl)n2)C1` (stereo not shown) [Example 339, N-(3-{[6-chloro-4-(1H-pyrrolo[2,3-b]pyridin-3-yl)pyridin-2-yl]amino}cyclohexyl)-1-methylpiperidine-2-carboxamide] registered a Ki of under 10 nM. To `O=C(CN1CCCCCC1)NC1CCCC(Nc2cc(-c3c[nH]c4ncccc34)cc(Cl)n2)C1` (stereo not shown) [Example 340, 2-(azepan-1-yl)-N-(3-{[6-chloro-4-(1H-pyrrolo[2,3-b]pyridin-3-yl)pyridin-2-yl]amino}cyclohexyl)acetamide] belongs under 10 nM. `O=C(N[C@H]1CC[C@H](Nc2cc(-c3c[nH]c4ncccc34)cc(Cl)n2)CC1)C1CCCC1` [Example 341, N-(trans-4-{[6-chloro-4-(1H-pyrrolo[2,3-b]pyridin-3-yl)pyridin-2-yl]amino}cyclohexyl)cyclopentanecarboxamide]: the Ki was under 10 nM. As to `O=C(NC1CCCC(Nc2cc(-c3c[nH]c4ncccc34)cc(Cl)n2)C1)C1CCNC1` (stereo not shown) [Example 343, N-(3-{[6-chloro-4-(1H-pyrrolo[2,3-b]pyridin-3-yl)pyridin-2-yl]amino}cyclohexyl)pyrrolidine-3-carboxamide], the Ki is under 10 nM.

Consider `O=C(NC1CCCC(Nc2cc(-c3c[nH]c4ncccc34)cc(Cl)n2)C1)C1CCNCC1` (stereo not shown) [Example 344, N-(3-{[6-chloro-4-(1H-pyrrolo[2,3-b]pyridin-3-yl)pyridin-2-yl]amino}cyclohexyl)piperidine-4-carboxamide], for which the inhibition constant Ki was under 10 nM. `O=C(NC1CCCC(Nc2cc(-c3c[nH]c4ncccc34)cc(Cl)n2)C1)C1CCCNC1` (stereo not shown) [Example 345, N-(3-{[6-chloro-4-(1H-pyrrolo[2,3-b]pyridin-3-yl)pyridin-2-yl]amino}cyclohexyl)piperidine-3-carboxamide] displayed a Ki of under 10 nM. As to `CN1CCC(C(=O)NC2CCCC(Nc3cc(-c4c[nH]c5ncccc45)cc(Cl)n3)C2)C1` (stereo not shown) [Example 346, N-(3-{[6-chloro-4-(1H-pyrrolo[2,3-b]pyridin-3-yl)pyridin-2-yl]amino}cyclohexyl)-1-methylpyrrolidine-3-carboxamide], the Ki is under 10 nM. To `CN1CCC(C(=O)NC2CCCC(Nc3cc(-c4c[nH]c5ncccc45)cc(Cl)n3)C2)CC1` (stereo not shown) [Example 347, N-(3-{[6-chloro-4-(1H-pyrrolo[2,3-b]pyridin-3-yl)pyridin-2-yl]amino}cyclohexyl)-1-methylpiperidine-4-carboxamide] belongs under 10 nM; to `CN1CCCC(C(=O)NC2CCCC(Nc3cc(-c4c[nH]c5ncccc45)cc(Cl)n3)C2)C1` (stereo not shown) [Example 348, N-(3-{[6-chloro-4-(1H-pyrrolo[2,3-b]pyridin-3-yl)pyridin-2-yl]amino}cyclohexyl)-1-methylpiperidine-3-carboxamide], 10 to 100 nM. In the case of `CN(C)C1(C(=O)NC2CCCC(Nc3cc(-c4c[nH]c5ncccc45)cc(Cl)n3)C2)CCC1` (stereo not shown) [Example 349, N-(3-{[6-chloro-4-(1H-pyrrolo[2,3-b]pyridin-3-yl)pyridin-2-yl]amino}cyclohexyl)-1-(dimethylamino)cyclobutanecarboxamide], the Ki was 10 to 100 nM. Take `C[C@@H](C(=O)NC1CCCC(Nc2cc(-c3c[nH]c4ncccc34)cc(Cl)n2)C1)N(C)C` (stereo partly drawn) [Example 350, N-(3-{[6-chloro-4-(1H-pyrrolo[2,3-b]pyridin-3-yl)pyridin-2-yl]amino}cyclohexyl)-N~2~,N~2~-dimethyl-L-alaninamide]: the Ki is under 10 nM. As for `O=C(CNCCO)N[C@H]1CC[C@H](Nc2cc(-c3c[nH]c4ncccc34)cc(Cl)n2)CC1` [Example 352, N-(trans-4-{[6-chloro-4-(1H-pyrrolo[2,3-b]pyridin-3-yl)pyridin-2-yl]amino}cyclohexyl)-N~2~-(2-hydroxyethyl)glycinamide], the inhibition constant Ki was under 10 nM.

`O=C1c2ccccc2C(=O)N1CCS(=O)(=O)NC1CCCC(Nc2cc(-c3c[nH]c4ncccc34)cc(Cl)n2)C1` (stereo not shown) [Example 353, N-(3-{[6-chloro-4-(1H-pyrrolo[2,3-b]pyridin-3-yl)pyridin-2-yl]amino}cyclohexyl)-2-(1,3-dioxo-1,3-dihydro-2H-isoindol-2-yl)ethanesulfonamide] returned an inhibition constant Ki of under 10 nM. As to `CC(C)(C)CNCC(=O)N[C@H]1CC[C@H](Nc2cc(-c3c[nH]c4ncccc34)cc(Cl)n2)CC1` [Example 355, N-(trans-4-{[6-chloro-4-(1H-pyrrolo[2,3-b]pyridin-3-yl)pyridin-2-yl]amino}cyclohexyl)-N~2~-(2,2-dimethylpropyl)glycinamide], the Ki was under 10 nM. In turn, `CCN(CCO)CC(=O)N[C@H]1CC[C@H](Nc2cc(-c3c[nH]c4ncccc34)cc(Cl)n2)CC1` [Example 356, N-(trans-4-{[6-chloro-4-(1H-pyrrolo[2,3-b]pyridin-3-yl)pyridin-2-yl]amino}cyclohexyl)-N~2~-ethyl-N~2~-(2-hydroxyethyl)glycinamide] returned a Ki of under 10 nM.

The compound `Clc1cc(-c2c[nH]c3ncccc23)cc(N[C@H]2CC[C@H](NC3CCNCC3)CC2)n1` [Example 357, trans-N-[6-chloro-4-(1H-pyrrolo[2,3-b]pyridin-3-yl)pyridin-2-yl]-N′-(piperidin-4-yl)cyclohexane-1,4-diamine] showed an inhibitory constant (Ki) of under 10 nM. Consider `O=C1c2ccccc2C(=O)N1CCS(=O)(=O)N[C@H]1CC[C@H](Nc2cc(-c3c[nH]c4ncccc34)cc(Cl)n2)CC1` [Example 358, N-(trans-4-{[6-chloro-4-(1H-pyrrolo[2,3-b]pyridin-3-yl)pyridin-2-yl]amino}cyclohexyl)-2-(1,3-dioxo-1,3-dihydro-2H-isoindol-2-yl)ethanesulfonamide], for which the Ki was under 10 nM. `Clc1cc(-c2c[nH]c3ncccc23)cc(NC2CCC(CC3CCC(NC4CCC4)CC3)CC2)n1` (stereo not shown) [Example 359, 6-chloro-N-(4-{[4-(cyclobutylamino)cyclohexyl]methyl}cyclohexyl)-4-(1H-pyrrolo[2,3-b]pyridin-3-yl)pyridin-2-amine]: the Ki is under 10 nM. To `O=C(CN1CCCCC1)Nc1cc(-c2c[nH]c3ncccc23)cc(Cl)n1` [Example 360, N-[6-chloro-4-(1H-pyrrolo[2,3-b]pyridin-3-yl)pyridin-2-yl]-2-(piperidin-1-yl)acetamide] belongs under 10 nM; to `Clc1cc(-c2c[nH]c3ncccc23)cc(N[C@H]2CC[C@H](NC3CCN(C4CCC4)CC3)CC2)n1` [Example 361, trans-N-[6-chloro-4-(1H-pyrrolo[2,3-b]pyridin-3-yl)pyridin-2-yl]-N′-(1-cyclobutylpiperidin-4-yl)cyclohexane-1,4-diamine], under 10 nM; to `CC(C)(C)OC(=O)N1CCC(C2CCC(Nc3cc(-c4c[nH]c5ncccc45)cc(Cl)n3)CC2)CC1` (stereo not shown) [Example 362, tert-butyl 4-(4-{[6-chloro-4-(1H-pyrrolo[2,3-b]pyridin-3-yl)pyridin-2-yl]amino}cyclohexyl)piperidine-1-carboxylate], 10 to 100 nM.

Take `CC(C)(C)OC(=O)N1CC(C(=O)N[C@H]2CC[C@H](Nc3cc(-c4c[nH]c5ncccc45)cc(Cl)n3)CC2)C1` [Example 364, tert-butyl 3-[(trans-4-{[6-chloro-4-(1H-pyrrolo[2,3-b]pyridin-3-yl)pyridin-2-yl]amino}cyclohexyl)carbamoyl]azetidine-1-carboxylate]: the Ki was under 10 nM. The compound `O=C(C1CC1)N1CCC(C2CCC(Nc3cc(-c4c[nH]c5ncccc45)cc(Cl)n3)CC2)CC1` (stereo not shown) [Example 366, [4-(4-{[6-chloro-4-(1H-pyrrolo[2,3-b]pyridin-3-yl)pyridin-2-yl]amino}cyclohexyl)piperidin-1-yl](cyclopropyl)methanone] displayed a Ki of under 10 nM.

The values are drawn from patent US8435980B2 (AbbVie Inc., priority 2009, dated 2013).
